Test system: mature-BDNF (mBDNF) expression
Assay: mBDNF expression in hippocampus and cortex of PTZ-kindled mice (Western blot)
Assay type: in vivo, mouse
Conditions: 80 mg/kg repeated, p < 0.01 vs PTZ kindling control
Excerpt: However, there are also few reports showing opposite findings.[51],[52] […] No changes in the expression of the nerve growth factor (NGF) were observed (Figure 6D–F).
Figure 6 Changes in mature-BDNF (mBDNF) expression in hippocampus (A) and cortex (C) and in proNGF expression in hippocampus (D) and cortex (F) with representative immunoblots, together with total protein amount visualized by the stain-free technique (B,E). Data are shown as means of relative expressions + SD (n = 8). Statistical significance was evaluated by one-way ANOVA followed by Tukey’s post hoc test: **p < 0.01 (GraphPad Prism 8.4.3).
The Western Blot method was used to assess the expression of proNGF and mBDNF in the mouse brain and hippocampal tissues. Using a bead homogenizer (Bead Ruptor Elite, Omni International, USA), the cortical and hippocampal regions of the mouse brain were weighted and homogenized at a ratio of 9 μL/mg in 2% SDS supplemented with a cocktail of protease (Thermo Scientific, Walthman, MA, USA) and phosphatase inhibitors (Sigma-Aldrich, St. Louis, MO, USA). Samples were then centrifuged at 10,000g for 10 min at 4 °C after being denatured for 10 min at 95 °C. […] One-way ANOVA with Tukey’s post hoc test was utilized to examine changes in the relative expression of the proteins that were evaluated.

`CC(=O)N[C@@H](C(=O)N1CCN(c2cccc(OC(F)(F)F)c2)CC1)c1ccccc1` [(R)-32, (R)-N-(2-Oxo-1-phenyl-2-(4-(3-(trifluoromethoxy)phenyl)piperazin-1-yl)ethyl)acetamide] was tested, and the “mBDNF protein expression in the hippocampus (PTZ kindling-induced overexpression)” value was “reversed the overexpression”.

From publication PMC11378297, “Discovery and Profiling of New Multimodal Phenylglycinamide Derivatives as Potent Antiseizure and Antinociceptive Drug Candidates” (ACS Chemical Neuroscience, 2024)
